Assay results published in patent US12599136B2, “Substituted isophthalic acid diamides and their use as herbicides” (Bayer Aktiengesellschaft, priority 2020, dated 2026).

What was measured:
Format in all cases: in vivo
[1] = tested on: Viola tricolor; experiment: Post-emergence herbicidal action against VIOTR
Outline: (§1)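 Greenhouse pot plants in sandy loam were sprayed at the one-leaf stage, 2 to 3 weeks after sowing, with WP or EC formulations as aqueous suspension or emulsion (600 to 800 l/ha water, 0.2% wetting agent). About 3 weeks later, damage was scored visually against untreated controls as % action (100% = dead, 0% = like control).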

[2] = tested on: Avena fatua; experiment: Pre-emergence herbicidal action against AVEFA; settings: visual score after 3 weeks vs untreated controls
Outline: (§2)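 Visual rating at 3 weeks vs untreated pots; 0–100% scale, 100% = plants died. Treatment: aqueous WP/EC spray onto covering soil, 600–800 l/ha, 0.2% wetter, seeds in sandy loam.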

[3] = tested on: Echinochloa crus-galli; experiment: Pre-emergence herbicidal action against ECHCG; settings: visual score after 3 weeks vs untreated controls
Outline: as §2

[4] = tested on: Alopecurus myosuroides; experiment: Post-emergence herbicidal action against ALOMY
Outline: as §1

[5] = tested on: Setaria viridis; experiment: Post-emergence herbicidal action against SETVI; settings: visual assessment about 3 weeks after treatment
Outline: as §1

[6] = tested on: Avena fatua; experiment: Post-emergence herbicidal action against AVEFA; settings: visual assessment about 3 weeks after treatment
Outline: as §1

[7] = tested on: Amaranthus retroflexus; experiment: Pre-emergence herbicidal action against AMARE; settings: visual score after 3 weeks vs untreated controls
Outline: as §2

[8] = tested on: Stellaria media; experiment: Pre-emergence herbicidal action against STEME
Source text: (§3) Seeds of monocotyledonous and dicotyledonous weed plants and crop plants are laid out in sandy loam soil in wood-fiber pots and covered with soil. The compounds of the invention, formulated in the form of wettable powders (WP) or as emulsion concentrates (EC), are then applied to the surface of the covering soil in the form of an aqueous suspension or emulsion at a water application rate equivalent to 600 to 800 l/ha, with addition of 0.2% wetting agent. After the treatment, the pots are placed in a greenhouse and kept under good growth conditions for the trial plants. The damage to the test plants is scored visually after a test period of 3 weeks by comparison with untreated controls (herbicidal activity in percent (%): 100% activity=the plants have died, 0% activity=like control plants). […] The tables below illustrate, in an illustrative manner, the post-emergence herbicidal action of the compounds of the invention, the herbicidal activity being stated in percent.

[9] = tested on: Abutilon theophrasti; experiment: Pre-emergence herbicidal action against ABUTH; settings: visual score after 3 weeks vs untreated controls
Outline: as §2

[10] = tested on: Polygonum convolvulus; experiment: Pre-emergence herbicidal action against POLCO; settings: 320 g/ha
Outline: as §2

[11] = tested on: Veronica persica; experiment: Pre-emergence herbicidal action against VERPE; settings: 320 g/ha
Outline: as §2

[12] = tested on: Hordeum murinum; experiment: Post-emergence herbicidal action against HORMU
Method: (§4) Seeds of monocotyledonous and dicotyledonous weed and crop plants are laid out in sandy loam soil in wood-fiber pots, covered with soil and cultivated in a greenhouse under good growth conditions. 2 to 3 weeks after sowing, the test plants are treated at the one-leaf stage. The compounds of the invention, formulated in the form of wettable powders (WP) or as emulsion concentrates (EC), are then sprayed onto the green parts of the plants in the form of an aqueous suspension or emulsion at a water application rate equivalent to 600 to 800 l/ha, with addition of 0.2% wetting agent. After the test plants have been left to stand in the greenhouse under optimal growth conditions for about 3 weeks, the action of the preparations is assessed visually in comparison to untreated controls (herbicidal action in percent (%): 100% activity=the plants have died, 0% activity=like control plants). […] The tables below illustrate, in an illustrative manner, the post-emergence herbicidal action of the compounds of the invention, the herbicidal activity being stated in percent.

[13] = tested on: Amaranthus retroflexus; experiment: Post-emergence herbicidal action against AMARE; settings: visual assessment about 3 weeks after treatment
Outline: as §1

[14] = tested on: Lolium rigidum; experiment: Pre-emergence herbicidal action against LOLRI; settings: 320 g/ha
Outline: as §2

[15] = tested on: Setaria viridis; experiment: Pre-emergence herbicidal action against SETVI
Outline: as §2

[16] = tested on: Pharbitis purpurea; experiment: Post-emergence herbicidal action against PHBPU; settings: visual assessment about 3 weeks after treatment
Outline: as §1

[17] = tested on: Veronica persica; experiment: Post-emergence herbicidal action against VERPE; settings: visual assessment about 3 weeks after treatment
Outline: as §1

[18] = tested on: Viola tricolor; experiment: Pre-emergence herbicidal action against VIOTR
Outline: as §2

[19] = tested on: Matricaria inodora; experiment: Pre-emergence herbicidal action against MATIN; settings: visual score after 3 weeks vs untreated controls
Outline: as §2

[20] = tested on: Alopecurus myosuroides; experiment: Pre-emergence herbicidal action against ALOMY; settings: visual score after 3 weeks vs untreated controls
Outline: as §2

[21] = tested on: Echinochloa crus-galli; experiment: Post-emergence herbicidal action against ECHCG; settings: visual assessment about 3 weeks after treatment
Outline: as §1

[22] = tested on: Abutilon theophrasti; experiment: Post-emergence herbicidal action against ABUTH
Outline: as §1

[23] = tested on: Hordeum murinum; experiment: Pre-emergence herbicidal action against HORMU; settings: visual score after 3 weeks vs untreated controls
Source text: as §3

[24] = tested on: Stellaria media; experiment: Post-emergence herbicidal action against STEME; settings: visual assessment about 3 weeks after treatment
Method: as §4

[25] = tested on: Cyperus esculentus; experiment: Pre-emergence herbicidal action against CYPES; settings: visual score after 3 weeks vs untreated controls
Source text: as §3

[26] = tested on: Matricaria inodora; experiment: Post-emergence herbicidal action against MATIN; settings: visual assessment about 3 weeks after treatment
Outline: as §1

[27] = tested on: Pharbitis purpurea; experiment: Pre-emergence herbicidal action against PHBPU; settings: 320 g/ha; visual score after 3 weeks vs untreated controls
Source text: as §3

[28] = Dosage column 320 g/ha (heading prints 3200 g/ha)

CN(C(=O)c1c(Cl)ccc(C(=O)Nc2nnnn2C)c1Cl)c1ccccc1 [Example 1-398]
80%: Pre-emergence action against AVEFA ([2]; 80 g/ha) | Pre-emergence action against ECHCG ([3]; 80 g/ha) | Post-emergence action against AVEFA in % ([6]; 80 g/ha) | Post-emergence action against HORMU in % ([12]; 80 g/ha) | Post-emergence action against AMARE in % ([13]; 5 g/ha) | Post-emergence action against PHBPU in % ([16]; 20 g/ha) | Post-emergence action against PHBPU in % ([16]; 80 g/ha) | Post-emergence action against VERPE in % ([17]; 20 g/ha) | Pre-emergence action against VIOTR ([18]; 80 g/ha) | Pre-emergence action against ALOMY ([20]; 20 g/ha) | Post-emergence action against STEME in % ([24]; 5 g/ha) | Pre-emergence action against CYPES ([25]; 80 g/ha)
100%: Pre-emergence action against ECHCG ([3]; 320 g/ha) | Post-emergence action against ALOMY ([4]; 80 g/ha) | Post-emergence action against SETVI in % ([5]; 80 g/ha) | Pre-emergence action against AMARE ([7]; 80 g/ha) | Pre-emergence action against AMARE ([7]; 320 g/ha) | Pre-emergence action against STEME ([8]; 80 g/ha) | Pre-emergence action against STEME ([8]; 320 g/ha) | Pre-emergence action against ABUTH ([9]; 20 g/ha) | Pre-emergence action against ABUTH ([9]; 80 g/ha) | Pre-emergence action against ABUTH [9, 28] | Pre-emergence action against POLCO [10] | Pre-emergence action against VERPE [11] | Post-emergence action against AMARE in % ([13]; 20 g/ha) | Post-emergence action against AMARE in % ([13]; 80 g/ha) | Pre-emergence action against SETVI ([15]; 80 g/ha) | Pre-emergence action against SETVI ([15]; 320 g/ha) | Pre-emergence action against VIOTR ([18]; 320 g/ha) | Pre-emergence action against MATIN ([19]; 80 g/ha) | Pre-emergence action against MATIN ([19]; 320 g/ha) | Pre-emergence action against ALOMY ([20]; 80 g/ha) | Pre-emergence action against ALOMY ([20]; 320 g/ha) | Post-emergence action against ECHCG in % ([21]; 20 g/ha) | Post-emergence action against ECHCG in % ([21]; 80 g/ha) | Post-emergence action against ABUTH ([22]; 20 g/ha) | Post-emergence action against ABUTH ([22]; 80 g/ha) | Pre-emergence action against HORMU ([23]; 320 g/ha) | Post-emergence action against STEME in % ([24]; 80 g/ha)
90%: Post-emergence action against VIOTR in % ([1]; 80 g/ha) | Pre-emergence action against AVEFA ([2]; 320 g/ha) | Pre-emergence action against AMARE ([7]; 20 g/ha) | Pre-emergence action against STEME ([8]; 20 g/ha) | Pre-emergence action against LOLRI [14] | Post-emergence action against VERPE in % ([17]; 80 g/ha) | Pre-emergence action against MATIN ([19]; 20 g/ha) | Post-emergence action against STEME in % ([24]; 20 g/ha) | Pre-emergence action against CYPES ([25]; 320 g/ha) | Post-emergence action against MATIN in % ([26]; 80 g/ha)

CCCn1nnnc1NC(=O)c1ccc(C(F)(F)F)c(C(=O)N(C)C)c1Cl [Example 3-123]
100%: Post-emergence action against VIOTR in % ([1]; 20 g/ha) | Post-emergence action against VIOTR in % ([1]; 80 g/ha) | Pre-emergence action against AVEFA ([2]; 320 g/ha) | Pre-emergence action against ECHCG ([3]; 320 g/ha) | Post-emergence action against ALOMY ([4]; 80 g/ha) | Post-emergence action against SETVI in % ([5]; 5 g/ha) | Post-emergence action against SETVI in % ([5]; 20 g/ha) | Post-emergence action against SETVI in % ([5]; 80 g/ha) | Post-emergence action against AVEFA in % ([6]; 20 g/ha) | Post-emergence action against AVEFA in % ([6]; 80 g/ha) | Pre-emergence action against AMARE ([7]; 20 g/ha) | Pre-emergence action against AMARE ([7]; 80 g/ha) | Pre-emergence action against AMARE ([7]; 320 g/ha) | Pre-emergence action against STEME ([8]; 80 g/ha) | Pre-emergence action against STEME ([8]; 320 g/ha) | Pre-emergence action against ABUTH ([9]; 80 g/ha) | Pre-emergence action against ABUTH [9, 28] | Post-emergence action against HORMU in % ([12]; 80 g/ha) | Post-emergence action against AMARE in % ([13]; 5 g/ha) | Post-emergence action against AMARE in % ([13]; 20 g/ha) | Post-emergence action against AMARE in % ([13]; 80 g/ha) | Pre-emergence action against SETVI ([15]; 80 g/ha) | Pre-emergence action against SETVI ([15]; 320 g/ha) | Pre-emergence action against VIOTR ([18]; 320 g/ha) | Pre-emergence action against MATIN ([19]; 320 g/ha) | Post-emergence action against ECHCG in % ([21]; 20 g/ha) | Post-emergence action against ECHCG in % ([21]; 80 g/ha) | Post-emergence action against ABUTH ([22]; 5 g/ha) | Post-emergence action against ABUTH ([22]; 20 g/ha) | Post-emergence action against ABUTH ([22]; 80 g/ha) | Pre-emergence action against HORMU ([23]; 320 g/ha) | Post-emergence action against STEME in % ([24]; 20 g/ha) | Post-emergence action against STEME in % ([24]; 80 g/ha) | Post-emergence action against MATIN in % ([26]; 20 g/ha) | Post-emergence action against MATIN in % ([26]; 80 g/ha)
80%: Pre-emergence action against AVEFA ([2]; 80 g/ha) | Pre-emergence action against ECHCG ([3]; 80 g/ha) | Post-emergence action against ALOMY ([4]; 20 g/ha) | Post-emergence action against AVEFA in % ([6]; 5 g/ha) | Pre-emergence action against LOLRI [14] | Post-emergence action against PHBPU in % ([16]; 5 g/ha) | Pre-emergence action against VIOTR ([18]; 80 g/ha) | Pre-emergence action against MATIN ([19]; 20 g/ha) | Pre-emergence action against ALOMY ([20]; 80 g/ha) | Pre-emergence action against HORMU ([23]; 80 g/ha) | Pre-emergence action against CYPES ([25]; 80 g/ha)
90%: Post-emergence action against VIOTR in % ([1]; 5 g/ha) | Pre-emergence action against STEME ([8]; 20 g/ha) | Pre-emergence action against VERPE [11] | Post-emergence action against HORMU in % ([12]; 20 g/ha) | Post-emergence action against PHBPU in % ([16]; 20 g/ha) | Post-emergence action against PHBPU in % ([16]; 80 g/ha) | Pre-emergence action against PHBPU [27] | Pre-emergence action against MATIN ([19]; 80 g/ha) | Pre-emergence action against ALOMY ([20]; 320 g/ha) | Post-emergence action against ECHCG in % ([21]; 5 g/ha) | Post-emergence action against STEME in % ([24]; 5 g/ha) | Pre-emergence action against CYPES ([25]; 320 g/ha) | Post-emergence action against MATIN in % ([26]; 5 g/ha)
